Three compounds from ChEMBL document CHEMBL1139123, “Rational design and synthesis of novel nucleotide anti-Giardia agents” (Bioorg Med Chem Lett, 2007) can be followed below.

A word on the MIC: it is the lowest concentration that inhibits growth of the organism. For orientation: inhibition means how much of the control response was suppressed. In general, IC50 refers to the concentration that inhibits the measured activity by half.

The nature of data set [1]: Therapeutic index, ratio of IC50 for bovine MDBK cells to MIC for Giardia lamblia WB6. To be noted: cattle. It is filed as cell-based.
The test system of data set [2] is Giardia intestinalis. The data set is described as follows: Antiprotozoal activity against Giardia lamblia WB6 trophozoites after 48 hrs. The conditions noted are these: Giardia duodenalis, WB6, 48 h. It is filed as functional.
In data set [3] the test system is Giardia intestinalis. In words: Antiprotozoal activity against Giardia lamblia WB6 assessed as inhibition of cyst formation at 10 uM after 4 days relative to control. The format is functional. To be noted: Giardia duodenalis, WB6, 96 h.
Data set [4] is described as follows: Toxicity in bovine MDBK cells. To be noted: bovine (Bos taurus).

Converted amounts (≈) assume the structure as drawn.

For `CC(=O)N[C@@H]1[C@@H](O)[C@H](O)[C@@H](CO)O[C@@H]1CCO`, the selectivity ratio in data set [1] amounted to 32. The compound further registered an MIC in the data set on Giardia intestinalis [2] of 3.9 µM (≈ 0.972 µg/mL). The inhibition at 10 µM in the data set with Giardia intestinalis [3] was determined as 56.2%. In addition, in data set [4], it took 125 µM to reach half-maximal inhibition (IC50).
The like results for `C=CC[C@H]1O[C@H](CO)[C@@H](O)[C@H](O)[C@H]1NC(C)=O` were, in that order, 17, 15.6 µM (≈ 3.83 µg/mL), 9.7% and 60 µM.
For the compound `CC(=O)N[C@@H]1[C@@H](O)[C@H](O)[C@@H](CO)O[C@@H]1CCOP(=O)(O)CC[C@H]1O[C@@H](n2ccc(=O)[nH]c2=O)[C@H](O)[C@@H]1O`, in data set [1], the selectivity ratio came to 64. In the data set on Giardia intestinalis [2], this compound had an MIC of 3.9 µM (≈ 2.16 µg/mL). Also, the inhibition at 10 µM with Giardia intestinalis [3] came out at 27.5%. In data set [4], this compound showed an IC50 of 250 µM.
